Results on 8 molecules are retold here after patent US20250277001A1, “PEPTIDE DERIVATIVES AND RELATED USES AS OREXIN AGONISTS” (CENTESSA PHARMACEUTICALS (UK) LIMITED, priority 2022, published 2025).

Like-named read-outs stand apart in the source and are kept apart here. Where a SMILES comes first, the peptide text is derived from it. Where no end group is shown, it is not given here. [ ]: non-standard residue; d: D form. The star is where a group is joined. Malonyl(2,2-Me2,histaminyl) = CC(C)(C(=O)NCCc1cnc[nH]1)C(=O)*; Gly(NCH2CH2Ph) = O=C(O)CNCCc1ccccc1; Hyp = O=C(O)[C@@H]1C[C@@H](O)CN1; hArg = N=C(N)NCCCC[C@H](N)C(=O)O; NMeN = CN[C@@H](CC(N)=O)C(=O)O; Aoc(2) = CCCCCC[C@H](N)C(=O)O; Phg = N[C@H](C(=O)O)c1ccccc1 Where only a bound is given, the exact number is not on record here.

Experiment [1] concerns mice. The conditions noted are these: cited from earlier work.
Experiment [2] concerns individuals with NT1. As to conditions: initial clinical studies; cited from earlier work.
In experiment [3] the target is T1, human orexin type 1 receptor (hOX1R) (Homo sapiens, UniProt O43613).
T1 construct: expressed in transfected cells
T1 sequence (O43613 1-425): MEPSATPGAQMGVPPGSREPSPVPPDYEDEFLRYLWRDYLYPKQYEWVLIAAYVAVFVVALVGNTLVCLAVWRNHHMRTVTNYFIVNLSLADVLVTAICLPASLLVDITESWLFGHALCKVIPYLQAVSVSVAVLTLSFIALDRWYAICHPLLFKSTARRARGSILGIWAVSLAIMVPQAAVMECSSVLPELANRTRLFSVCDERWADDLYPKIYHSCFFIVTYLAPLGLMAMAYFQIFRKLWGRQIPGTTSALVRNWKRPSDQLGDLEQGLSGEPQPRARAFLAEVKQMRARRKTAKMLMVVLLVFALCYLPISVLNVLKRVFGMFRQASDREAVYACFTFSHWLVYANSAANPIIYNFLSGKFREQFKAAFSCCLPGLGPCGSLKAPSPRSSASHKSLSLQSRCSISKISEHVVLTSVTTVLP
The experiment in a line: Measurement of orexin type 1 receptor agonist activity (CHO cells, FLIPR TETRA intracellular Ca2+). It is filed as cell-based. From the text: (§1) In some embodiments, the assay uses cells stably expressing either human orexin type 2 or human orexin type 1 receptor. In some embodiments, the cells are obtained by inserting the Orexin receptor cDNA into pcDNA3.1(+) plasmid vector, identifying clones by G418 drug resistance selection, and/or growing a single clone for OX2R-CHO and OX1R-CHO in bulk. In some embodiments, the assay is detected using Fluorescent Imaging Plate Reader TETRA (FLIPR TETRA: manufactured by Molecular Devices). In some embodiments, the agonist activity of the test peptide is calculated assuming that the fluorescence value of the well containing only the dilution buffer is 0% and the fluorescence value of the well containing 10 nM human orexin A (Tocris) buffer is 100%.
(§2) Stable cell line generation. Obtainment of cells stably expressing either human orexin type 2 or human orexin type 1 receptor: to obtain a stable cell line the Orexin receptor cDNA was inserted into pcDNA3.1(+) plasmid vector and clones identified by G418 drug resistance selection. […] A single clone for OX2R-CHO and OX1R-CHO were grown in bulk and frozen to generate a cell bank for routine screening.
(§3) Measurement of orexin type 1 receptor agonist activity. Chinese hamster ovary (CHO) cells expressing human orexin type 1 receptor (hOX1R) were seeded in each well of 384 well black clear bottom plates (BD Flacon) at 10,000 cells per well and cultured for 24 h in an Ham's F12 (Gibco) medium containing 10% fetal calf serum (Sigma Aldrich) under the conditions of 37° C., 5% CO2. After removal of the medium, 50 μL of assay buffer 1 (0.1% bovine serum albumin (Sigma Aldrich), 20 mM HEPES (Molecular Dimensions), […] probenecid (Sigma Aldrich), 1× Calcium 5 dye (Molecular Devices) in Hank's balanced salt solution (Invitrogen)) was added, and the cells were incubated for 60 min under the conditions of 37° C., 5% CO2. A test peptide was dissolved in dimethyl sulfoxide (Sigma Aldrich) to 1 mM, and then diluted with assay buffer 2 (20 mM HEPES, Hank's balanced salt solution, 0.1% bovine serum albumin). For the reaction, a test peptide solution (10 μl) was added using Fluorescent Imaging Plate Reader TETRA (FLIPR TETRA: manufactured by Molecular Devices), a fluorescence value (excitation wavelength 488 nm, measurement wavelength 570 nm) of each well was measured every one second for 2 min, and the agonist activity was determined using the area of the fluorescence value as an indicator of intracellular Ca^2+ concentration. The agonist activity of the test peptide was calculated assuming that the fluorescence value of the well added with only the dilution buffer was 0% and the fluorescence value of the well added with 10 nM human orexin A (Tocris) buffer was 100%. As used herein, Emax indicates the value at 1 μM concentration when orexin A is converted to a full agonist (maximum value of agonist activity: 100%).

In experiment [4] the target is T2, human orexin type 2 receptor (hOX2R) (Homo sapiens, UniProt O43614).
T2 construct: expressed in transfected cells
T2 sequence (O43614 1-444): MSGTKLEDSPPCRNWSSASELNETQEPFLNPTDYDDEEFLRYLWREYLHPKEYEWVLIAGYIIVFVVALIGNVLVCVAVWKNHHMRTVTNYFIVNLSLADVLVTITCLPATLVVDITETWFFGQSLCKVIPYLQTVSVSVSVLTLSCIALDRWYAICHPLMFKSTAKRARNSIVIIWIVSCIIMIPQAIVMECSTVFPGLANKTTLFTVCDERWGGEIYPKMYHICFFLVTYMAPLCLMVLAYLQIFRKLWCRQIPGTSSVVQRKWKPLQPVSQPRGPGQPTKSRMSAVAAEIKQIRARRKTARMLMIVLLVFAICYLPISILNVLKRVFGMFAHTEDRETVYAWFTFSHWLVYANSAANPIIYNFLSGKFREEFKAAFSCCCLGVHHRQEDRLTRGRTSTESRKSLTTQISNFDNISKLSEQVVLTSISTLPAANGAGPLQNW
The experiment in a line: Measurement of orexin type 2 receptor agonist activity (CHO cells, FLIPR TETRA intracellular Ca2+). It is filed as cell-based.
Source text: as §1, §2
as §3, with “type 2” for “type 1”, “receptor (hOX2R)” for “receptor (hOX1R) were”

The mark [5] stands for this setting: intracerebroventricular (ICV), orexin-neuron ablated mice.

As to `COc1ccc(-c2cccc(C(=O)N(C)C)c2)cc1S(=O)(=O)Nc1cccc(NCCNC(=O)c2ccccc2N(C)C)c1` [YNT-185], in experiment [1] (NT1 mouse model), the “sleep-onset REM periods and cataplexy-like events” value is “decreases”. In addition, the wakefulness result in experiment [1] (intraperitoneally or ICV, wild type (WT) and orexin ligand-deficient mice) is recorded as “modestly increases”.

Turning to `COC(=O)N1CCC[C@H](NS(C)(=O)=O)[C@@H]1CO[C@H]1CC[C@@H](c2ccccc2)CC1` [TAK-925], the wakefulness result in experiment [1] (subcutaneous, OX2R-knockout mice) is “not”; in experiment [1] (subcutaneous, WT mice) it was “modestly increased”; in experiment [2] it was “substantial levels of increased wakefulness”. In addition, in experiment [2], the cataplexy entry is “trends for decreasing cataplexy”.

Usually EC50 stands for the concentration needed to bring the measured effect to its halfway point. A higher EC50 goes with a need for much substance. Consider `CCCCCC[C@H](NC(=O)[C@@H](NC(=O)[C@H](CC(C)C)NC(=O)[C@@H](NC(=O)CNC(=O)[C@@H](NC(=O)[C@H](C)NC(=O)[C@@H]1C[C@@H](O)CN1C(=O)[C@H](CC(N)=O)N(C)C(=O)CN(CCc1ccccc1)C(=O)[C@H](CCCNC(=N)N)NC(=O)[C@@H]1CCCN1C(=O)[C@H](CCCCNC(=N)N)NC(=O)[C@H](CCC(N)=O)NC(=O)C(C)(C)C(=O)NCCc1cnc[nH]1)c1ccccc1)[C@@H](C)CC)[C@@H](C)O)C(N)=O` [compound 3] ({Malonyl(2,2-Me2,histaminyl)}-Q[hArg]PR[Gly(NCH2CH2Ph)][NMeN][Hyp]A[Phg]GILT[Aoc(2)]-NH2), for which the EC50 was over 10 nM in experiment [3] and under 0.1 nM in experiment [4].

With `CCCCCC[C@H](NC(=O)[C@@H](NC(=O)[C@H](CC(C)C)NC(=O)[C@@H](NC(=O)CNC(=O)[C@@H](NC(=O)[C@H](C)NC(=O)[C@@H]1C[C@@H](O)CN1C(=O)[C@H](CC(N)=O)N(C)C(=O)CN(CCc1ccccc1)C(=O)[C@H](CCCNC(=N)N)NC(=O)[C@H](CCCNC(=N)N)NC(=O)[C@@H]1CCCN1C(=O)[C@H](CCCCNC(=N)N)NC(=O)[C@H](CCC(N)=O)NC(=O)C(C)(C)C(=O)NCCc1cnc[nH]1)c1ccccc1)[C@@H](C)CC)[C@@H](C)O)C(N)=O` [compound 17] ({Malonyl(2,2-Me2,histaminyl)}-Q[hArg]PRR[Gly(NCH2CH2Ph)][NMeN][Hyp]A[Phg]GILT[Aoc(2)]-NH2), the figures for the concentration giving a half-maximal response (EC50) in experiment [3] and in experiment [4] were over 10 nM and under 0.1 nM, respectively.

Take `CCCCCC[C@H](NC(=O)[C@@H](NC(=O)[C@H](CC(C)C)NC(=O)[C@@H](NC(=O)CNC(=O)[C@@H](NC(=O)[C@H](C)NC(=O)[C@@H]1C[C@@H](O)CN1C(=O)[C@H](CC(N)=O)N(C)C(=O)CN(CCc1ccccc1)C(=O)[C@H](CCCNC(=N)N)NC(=O)[C@H](CCCNC(=N)N)NC(=O)[C@@H]1CCCN1C(=O)[C@H](CCCCNC(=N)N)NC(=O)[C@@H](CCC(N)=O)NC(=O)C(C)(C)C(=O)NCCc1cnc[nH]1)c1ccccc1)[C@@H](C)CC)[C@@H](C)O)C(N)=O` [compound 19] ({Malonyl(2,2-Me2,histaminyl)}-[dQ][hArg]PRR[Gly(NCH2CH2Ph)][NMeN][Hyp]A[Phg]GILT[Aoc(2)]-NH2): the EC50 was over 10 nM in experiment [3] and under 0.1 nM in experiment [4].

Take “orexin A (QPLPDCCRQKTCSCRLYELLHGAGNHAAGILTL; ends and bridges not checked; cysteine pairing not given here; UniProt O43612 34-66, looked up) [orexin neuropeptide, also known as hypocretin-1]”: in experiment [1] (setting [5]), the cataplexy-like behavior entry was “decreases” and the time spent awake entry is on record as “increase”.

For `CCCCCC[C@H](NC(=O)[C@@H](NC(=O)[C@H](CC(C)C)NC(=O)[C@@H](NC(=O)CNC(=O)[C@@H](NC(=O)[C@H](C)NC(=O)[C@@H]1C[C@@H](O)CN1C(=O)[C@H](CC(N)=O)N(C)C(=O)CN(CCc1ccccc1)C(=O)[C@H](CCCNC(=N)N)NC(=O)[C@@H]1CCCN1C(=O)[C@H](CCCCNC(=N)N)NC(=O)[C@@H](CCC(N)=O)NC(=O)C(C)(C)C(=O)NCCc1cnc[nH]1)c1ccccc1)[C@@H](C)CC)[C@@H](C)O)C(N)=O` [compound 4] ({Malonyl(2,2-Me2,histaminyl)}-[dQ][hArg]PR[Gly(NCH2CH2Ph)][NMeN][Hyp]A[Phg]GILT[Aoc(2)]-NH2), the EC50 is over 10 nM in experiment [3] and under 0.1 nM in experiment [4].

As to `CCCCCC[C@H](NC(=O)[C@@H](NC(=O)[C@H](CC(C)C)NC(=O)[C@@H](NC(=O)CNC(=O)[C@@H](NC(=O)[C@H](C)NC(=O)[C@@H]1C[C@@H](O)CN1C(=O)[C@H](CC(N)=O)N(C)C(=O)CN(CCc1ccccc1)C(=O)[C@H](CCCCN)NC(=O)[C@@H]1CCCN1C(=O)[C@H](CCCCNC(=N)N)NC(=O)[C@H](CCC(N)=O)NC(=O)C(C)(C)C(=O)NCCc1cnc[nH]1)c1ccccc1)[C@@H](C)CC)[C@@H](C)O)C(N)=O` [compound 8] ({Malonyl(2,2-Me2,histaminyl)}-Q[hArg]PK[Gly(NCH2CH2Ph)][NMeN][Hyp]A[Phg]GILT[Aoc(2)]-NH2), the EC50 in experiment [3] was over 10 nM; in experiment [4] it was under 0.1 nM.
